From US20250009844A1, “MATURATION OF MUCOSAL DEFENSE AND GUT/LUNG FUNCTION IN THE PRETERM INFANT” (Novozymes A/S, priority 2017, published 2025)
“Also recorded” adds a separate entry of the source. No end group written: not given here.

How the values were obtained:
[1] = test system: postnatal day 14 C57BL/6J mice; assay: Dithizone/Klebsiella induced necrotizing enterocolitis murine model (Example 9); assay type: in vivo
From the text: FIG. 40. Histological scoring system for evaluation of severity of necrotizing enterocolitis in a murine model of Klebsiella/Dithizone induced necrotizing enterocolitis. >2 indicates significant gut inflammation.
Incidence of necrotizing enterocolitis and IL-22 concentration in a murine model of necrotizing enterocolitis. Intestinal mucosal injury consistent with human necrotizing enterocolitis was induced by a combination of Dithizone followed by Klebsiella pneumonia challenge by oral gavage in postnatal day 14 C57BL/6J mice. The severity of necrotizing enterocolitis was assessed by a histological scoring system with a score of >2 indicating significant damage (FIG. 40). Neither Dithizone nor K. pneumonia challenge induced mucosal injury by themselves, but the combination of Dithizone followed by K. pneumonia challenge induced severe and statistically significant mucosal damage measured 16 hours post challenge (FIG. 41).

[2] = test system: microbiota of the intestine; assay: Therapeutic high fat diet model in diet-induced obese mice, 16S microbial analyses (Example 2); assay type: in vivo
From the text: The overall design of the study is shown in FIG. 1, lower panel, “Therapeutic study”. Mice and diets. The experiment elucidates the effect of hBD-2 and HD5 on the microbiota in diet-induced obese mice. A run-in period of 13 weeks where mice were fed a very HFD (60% energy from fat) preceded the intervention. Only mice meeting the criteria of a minimum of 12 gram weight gain (approximately 50% of initial bodyweight) during the run-in period were included in the final analyses. […] They were exposed to all experimental tests, but excluded from the analyses.
Treatment regimen. Before the intervention all mice were MR scanned. Cages of mice were allocated to experimental groups based on their fat mass. All subsequent measures were paired with data from the same mouse before the intervention. A LFD (low fat diet) reference group was running in parallel. As controls for the intervention 2 additional groups were included: a) very HFD and b) LFD. Experimental mice stayed on the very HFD during the intervention. The mice were on the experimental diet for 10 weeks. They were co-housed throughout the experiment, 4 mice per cage, 3 cages per group. All tests ran over 3 days, 1 cage per group per day.
(§1) Microbial analyses were carried out to study the microbiota of the intestine. Longitudinal 16S characterization was conducted on 4 paired samples from 60 mice, 240 samples in total. Each mouse was sampled prior to diet change, 1 week post diet change, 4 weeks post diet change and at termination, thus ensuring a thorough characterization of the faecal microbiota as a result of defensin treatment.

BALB/c mice = assay: Murine model of acute graft versus host disease, oral HD5 (Example 13); assay type: in vivo
Procedure: Treatment regime: 22 female BALB/c mice were irradiated with 4.5 Gy (2×498 sec) at intervals of at least 4 hours on day 0. Bone marrow was harvested: hind limbs harvested from 2 female WT C57BL/6 mice aseptically. Skeletal muscle was removed and epiphysis cut away. Lumen of bone flushed with PBS and cells pelleted and taken up. Harvest of T-cells: spleens from 2 female WT C57BL/6 mice were meshed through a […] cell strainer into a PBS filled dish. Cells were taken up in PBS and transferred into a 50 mL falcon tube and spun down. Cells were taken up in 1 mL PBS and 20 μL of CD4 microbead +20 μL CD8 microbeads per spleen added for incubation for 20 min at 4 degrees C. Cells were washed with PBS and applied to MACS separation in order to positively select CD4+ and CD8+ cells. Positively selected T-cells were counted and taken up. Transplantation: directly after the second irradiation, all WT BALB/c recipient mice were injected with 5×1.000.000 BM cells (50 μL) i.v. into the retroorbital venous plexus under isoflurane anesthesia. 22 BALB/c mice were treated with 1.2 mg of HD5/kg BW/day; 1.2 mg of hBD-2/kg BW/day or 100 μL of PBS per day vial oral gavage from day 0-10.
Survival was monitored for 60 days.

SCID mice = assay: Therapeutic, murine, 14 weeks, CD4+CD25+ T cell transfer induced colitis model (Example 4); assay type: in vivo
From the text: Treatment regime: 70 female BALB/c mice housed in groups of five per cage were allocated to 7 different treatment groups. Colitis was induced in SCID mice by transplantation of CD4+CD25 Tcells from BALB/c mice. Lymphocytes isolated from spleen and lymph nodes from BALB/c mice were subjected to negative selection of CD4+Tcells. Afterwards, CD4+CD25+cells were positively isolated by binding to the beads from the CD4+Tcell suspensions and the CD4+CD25—were collected from the supernatant. The animals were treated with hBD-2, 0.1 mg/kg s.c. once daily 86consecutive days from day 7 (OD); 1 mg/kg s.c. OD or 3 mg/kg s.c. OD;with mouse anti TNFa 100 μg/mouse s.c. twice weekly (enbrel); with dexamethasone 0.3 mg/kg intraperitoneally OD (dex); with PBS s.c. as vehicle from day 7 and 86 consecutive days (vehicle) or sham treated (sham).
Treatment groups: • 1. 0.1 mg/kg hBD-2, once daily subcutaneously (n=11) • 2. 1 mg/kg hBD-2, once daily subcutaneously (n=11) • 3. 3 mg/kg hBD-2, once daily subcutaneously (n=11) • 4. PBS (hBD-2 vehicle), once daily subcutaneously (n=11) • 5. 0.3 mg/kg Dexamethasone, once daily intraperitoneally (n=11) • 6. 100 μg/mouse soluble human 75-kilodalton TNF receptor linked to Fc portion of IgG1 (Enbrel), twice a week subcutaneously (n=11) • 7. Sham treated group (n=6)
Clinical assessment was based on body weight loss, stool consistency and presence of blood per rectum. The animals were sacrificed on day 95 and colon removed for assessment of weight and myeloperoxidase activity.

[3] = test system: microbiota of the intestine; assay: Prophylactic high fat diet murine model, 16S microbial analyses (Example 1); assay type: in vivo, mice
From the text: The overall experimental design is shown in FIG. 1, top panel “Prophylactic study”. Mice: Mice were housed in trios, 4 cages per group. Feed intake was registered daily just before lights were turned off at 6 pm. Individual mice were subjected to experimental procedures in altered order both group and cage wise. Mice were kept at room temperature under a 12-hour light/dark cycle at SPF standard conditions. Diets: For dosing, the average weight was estimated to be 25 grams per mouse. Mice eat approximately 3 grams of feed per mouse per day.
Treatment regime: Mice were fed either a high fat diet (HFD) or a low fat (LF) control diet. The HFD contained 4 subgroups; a) hBD-2, b) HD5, c) hBD-2/HD5 and d) standard HFD without supplementation of defensins. Defensin concentration was 1,2 mg hBD-2 per kg mouse per day. HD5 was given in equimolar concentration to hBD-2.
as §1

[4] = same three dosing regimens, sacrifice day 95

Substance: human beta defensin 2 (GIGDPVTCLKSGAICHPVFCPRRYKQIGTCGLPGTKCCKKP; ends and bridges not checked; cysteine pairing not given here; listed as Homo sapiens) [hBD-2]
- Concentration of IL-22 ([1]; 1.2 mg/kg one hour post challenge, 9 hours post challenge): statistically significant gut mucosa protective increase of IL-22; also recorded: statistically significantly increased
- Incidence of necrotizing enterocolitis (histological score >2) ([1]; oral 1.2 mg/kg one dose one hour post K. pneumonia challenge, 16 hours post challenge): statistically significant reduction of the incidence of necrotizing enterocolitis; also recorded: dramatically and statistically significantly reduced the incidence of necrotizing enterocolitis to normal
- Relative abundance of Bifidobacteriaceae ([2]; colon, hBD-2 p<0.04): dramatically and statistically significant increased the relative abundance of Bifidobacteriaceae
- Abundance of Alloprevotella ([2]; colon, therapeutic intervention, HD5 p<0.02): no influence on Alloprevotella abundance
- Relative abundance of Bifidobacteriaceae ([2]; small intestine, hBD-2 p<0.0001): dramatically and statistically significant increased the relative abundance of Bifidobacteriaceae
- Animals that had died by day 60 (BALB/c mice; 1.2 mg/kg BW/day oral gavage day 0-10, HD5 group of 8, PBS six out of eight died): none
- Mortality (BALB/c mice; 22 mice, oral treatment for 10 days): significant reduction of mortality
- Clinical score (body weight loss, stool consistency, blood per rectum) (SCID mice; hBD-2 1 mg/kg s.c. OD, Dexamethasone 0.3 mg/kg i.p. OD, Enbrel 100 μg/mouse s.c. twice weekly, from day 7): statistically significant and similar effect on clinical score; also recorded: on par with 100 μg/mouse anti TNF-α s.c. twice weekly (Enbrel) and 0.3 mg/kg dexamethasone
- Colon weight (SCID mice; [4]): statistically significant and similar effect on colon weight; also recorded: on par with 100 μg/mouse anti TNF-α s.c. twice weekly (Enbrel) and 0.3 mg/kg dexamethasone
- Myeloperoxidase activity in intestinal tissue (SCID mice; [4]): statistically significant and similar effect; also recorded: on par with 100 μg/mouse anti TNF-α s.c. twice weekly (Enbrel) and 0.3 mg/kg dexamethasone
- Abundance of Barnesiella ([3]; colon, prophylactic treatment, p<0.03): statistically significant increase in abundance of Barnesiella
- Abundance of Lactobacillus ([3]; colon, prophylactic treatment, p=0.1): trend towards lower abundance of Lactobacillus
- Microbial presence and abundance (unifrac, genus analysis) ([3]; prophylactic oral defensin in HFD, 1,2 mg hBD-2 per kg per day, HD5 equimolar, mix 50%+50%): affected primarily the microbial presence
